Common to all, as to format: in vivo
For data set [1], the system named is airways. Description: Bronchodilation with targeted versus continuous delivery mode of volatile anesthetics (FIG. 8). As to conditions: targeted vs continuous delivery. An excerpt: The various delivery modes are at least targeted mode and continuous mode. […] Using the systems and methods described here, volatile anesthetics can be selectively delivered for a specified interval during inspiration.

Another data set has as its system respiratory system. As to the kind of experiment: Respiratory impedance spectrum (resistance and elastance) during MCh doses and after intravenous atropine. On the procedure:
By combining specific frequencies such that there is physiologic tidal excursion, in an example embodiment, the EVW is able to maintain gas exchange during conventional ventilation while providing continuous assessment of Z. The EVW differs from other oscillatory waveforms in that it has been modified to allow passive expiration, so Z is calculated from the inspiratory portion of the breath only.
The mechanical impedance spectrum of the lungs or total respiratory system can be very sensitive indicators of bronchoconstriction and response to therapy. Although mathematically Z is a complex number with real and imaginary parts, it can be expressed in terms of effective frequency dependent resistance and elastance. Measurements can be obtained before and 5 minutes following a deep inspiration (DI) to 35 cm H2O, as well as after administration of intravenous atropine. Under pre and post-DI conditions, both respiratory resistance (Rrs) and elastance (Ers) increased at each frequency with increases in MCh dose. At the lowest frequencies, Rrs increased ˜50% during the highest dose of MCh compared with baseline due to increases in both airway and tissue resistances. The Ers increased by ˜65% as the parenchyma stiffens due to airway-tissue interdependence. […] Thus, the impedance spectra reveal subtleties of airway mechanics and response to therapy not evident from simple Rrs and Ers estimates measured at a single breathing frequency. Coupling these types of data to distributed models of airway and tissue mechanics then allows estimates of the heterogeneity of airway or tissue changes in addition to the overall lung properties.

Data set [2] deals with airways. Description: Lung measurements for targeted isoflurane delivery during phases of treatment (FIG. 7). The conditions noted are these: following targeted therapy with isoflurane. The source says: Severe sustained bronchospasm may be established using continuous i.v. infusion of methacholine. Using the anesthetic ventilator system, a user has the ability to control the timing, peak concentration, and duration of inhaled isoflurane delivery for various ranges of conventional ventilator rates and tidal volumes typical of ICU patients. In one embodiment, the solenoid valves (shown in FIG. 1) can be programmed to deliver isoflurane during the last 180 cc of the delivered inspired volume. Furthermore, none of the inhaled isoflurane delivered during the last portion of the inspiratory period reaches the alveolar compartment to reduce the risk of side effects and systemic absorption.
FIG. 7 are exemplary graphs 700 illustrating various lung measurements for targeted isoflurane delivery measured during various phases of treatment, according to an example embodiment. As shown in graphs 700, various lung measurements, including lung resistance (RL), lung elastance (EL), and dead space (VD), are measured as described above. […] The estimates of lung resistance and lung elastance may be obtained via multiple linear regression on measured flow and transplumonary pressure waveforms. Anatomic dead space may be estimated using breath-by-breath volume capnography. Capnography is the monitoring of the concentration or partial pressure of carbon dioxide in the respiratory gases. These measurements may be acquired at least under baseline conditions, during bronchoconstriction, after 10-20 minutes of volatile anesthetic treatment, and after maximal bronochodilation with i.v. atrophine. Airway constriction results in increased airway resistance and stiffening of the lung parenchyma, which is often measured with lung resistance and lung elastance. Measuring these parameters help in determining the effectiveness of the targeted delivery treatment.

The nature of data set [3]: Isoflurane traces during targeted and continuous delivery modes (FIG. 9). The conditions noted are these: two breaths. An excerpt:
FIG. 9 are exemplary graphs 900 illustrating isoflurane traces during various delivery modes in relation to the delivered tidal volume for two breaths, according to an example embodiment. As shown in graphs 900, the solid line represents the amount of isoflurane in the lungs and the dotted line represents the tidal volume (Vt) over time.

Setting [4] is: following intravenous atropine, MCh 200 μg/min.
[5] abbreviates: following intravenous atropine, any frequency.

For the molecule `FCOC(C(F)(F)F)C(F)(F)F` [sevoflurane], the “bronchodilation, targeted delivery mode compared with continuous delivery mode” value in the data set with airways [1] is reported as “slightly higher”.

`CC(=O)OC(C)C[N+](C)(C)C` (stereo not shown) [MCh, methacholine]: the “increase in respiratory elastance (Ers)” value in the data set on respiratory system (highest dose of MCh) is on record as approximately 65%. Also, the “increase in respiratory resistance (Rrs) compared with baseline” value in the data set on respiratory system (lowest frequencies, highest dose of MCh (200 μg/min)) was approximately 50%.

Regarding `CN1[C@@H]2CC[C@H]1C[C@@H](OC(=O)C(CO)c1ccccc1)C2` (stereo partly shown) [atropine], in the data set with respiratory system (setting [4]), the “Ers compared with value at the highest MCh dose” value is recorded as “decrease” and the “Rrs compared with value at the highest MCh dose” value is “decrease”. In the data set on respiratory system (setting [5]), the “Ers compared with baseline value” is recorded as “no significant difference” and the “Rrs compared with baseline value” was “no significant difference”.

As for `FC(F)OC(Cl)C(F)(F)F` (stereo not shown) [isoflurane], in the data set on airways [2], the “lung elastance (EL)” value is on record as “decreasing trend” and the “lung resistance (RL)” value was “decreasing trend”. Moreover, the “estimation of dead space (VD)” value in the data set on airways [2] (evidence of bronchodilation) is “increasing”. Besides, the “levels of isoflurane agent in the lungs, targeted compared with continuous delivery method” value in data set [3] (over time) is listed as “lower for most of the time”. In data set [3], the “peak level of isoflurane, targeted compared with continuous delivery method” value is listed as “comparable”. Also, the “bronchodilation, targeted delivery mode compared with continuous delivery mode” value in the data set on airways [1] is given as “slightly higher”.

Values taken from US20150290418A1, “TREATMENT OF RESPIRATORY CONDITION USING TARGETED DELIVERY” (Beth Israel Deaconess Medical Center, Inc., priority 2013, published 2015).
